Measurements reported in patent US20100041089A1, “IMPROVED METHOD FOR DETECTING CHEMICAL […]” (priority 2006, published 2010).

System: yeast genes (expressed mRNA)
Test: DNA chip measurement of expressed mRNA of yeast genes after culture with a toxic chemical substance
Type: cell-based, Saccharomyces cerevisiae S288C
Settings: for level of expressed mRNA in the presence of chemical substance / level in the absence of chemical substance: cultured two hours with the chemical substance; for The level of expressed mRNA in the presence of chemical substance/The level of expressed mRNA in the absence of chemical substance: cultured two hours with substance
Experimental: Yeast (Saccharomyces cerevisiae S288C (a SUC2mal mel gap2 CUP1)) were cultured at 25° C. on YPD medium (yeast extract 1%, polypeptone 2%, glucose 2%). One of toxic chemical substances was added to the cell at logarithmic growth phase, and the cell was further cultured for two hours. Cell was cultured without any chemical substance in the same condition, and was used as a control. Concentrations of the chemical substances were defined to inhibit the growth of the yeast but not lead to death.
After the completion of cultivation, the culture was centrifuged to collect the cells. To the cells, sodium acetate buffer (50 mM sodium acetate, 10 mM EDTA, 1% SDS) was added, and the mixture was shaken at 65° C. for five minutes, followed by returning to room temperature, and obtaining the supernatant, which procedure was repeated two times. To the supernatant, ½ amount of a solution of phenol/chloroform (1:1) was added, and the mixture was centrifuged to give a supernatant, an equal amount of chloroform was added, and the mixture was centrifuged to give a supernatant. To the supernatant, an equal amount of isopropanol containing 0.3 M sodium acetate was added, and the mixture was allowed to stand at room temperature for 30 minutes, after which the mixture was centrifuged to give sediment of the whole RNAs. Seventy % ethanol was added to the sediment, and the mixture was again centrifuged to give sediment, which was then dried and dissolved in water. mRNA was isolated from the whole RNAs as followings. In view of the fact that a poly A chain is attached to the 3′ terminus of mRNA, a polynucleotide having a poly T structure which was immobilized on the surface of latex beads was used to trap the mRNA, and then the mRNA was washed and eluted with spine column (Oligotex-dT30<Super>mRNA Purification Kit, Takara). Reverse transcription of the mRNA was conducted with a reverse transcriptase (Super Script II Reverse Transcriptase; catalogue No. 18064-014, GibcoBRL) using fluorescence-labeled nucleotides to give cDNAs that were introduced with Cy3-dUTP or Cy5-dUTP during the reverse transcription.
The labeled cDNAs were dissolved in TE buffer (10 mM Tris-HCl/1 mM EDTA, pH 8.0), and the solution was dropped on the DNA chip containing the whole genes of yeast (DNA Chip Research Inc. Japan) so that the cDNAs were hybridized on the DNA chip at 65° C. for over 12 hours. The fluoresces intensity of the DNA chip was read with a scanner, and the ratio relative to the fluorescence intensity resulting from the absence of chemical substance was estimated as the following, which is shown in Tables 1 to 9.
In the Tables, “Intensity” indicated in the rightmost column is a value of the level of expressed mRNA of each gene in control cells as divided by the average level of the expressions of the whole genes. A gene of which mRNA level is lower in control, and is higher in cases of addition of chemical substance, is especially useful in the detection of toxic substances.
Here, when a ratio of an amount of mRNA expressed in the presence of the chemical substance to an amount of mRNA expressed in the absence of the chemical substance is two or more, then it is considered significant.

Structure (SMILES): [Cl][Hg][Cl] [(3), HgCl2]
- level of expressed mRNA in the presence of chemical substance / level in the absence of chemical substance (yeast gene YJL097W): 3.7
- The level of expressed mRNA in the presence of chemical substance/The level of expressed mRNA in the absence of chemical substance (yeast gene YJL151C): 3.2
- The level of expressed mRNA in the presence of chemical substance/The level of expressed mRNA in the absence of chemical substance (yeast gene YJL152W): 1.8
- The level of expressed mRNA in the presence of chemical substance/The level of expressed mRNA in the absence of chemical substance (yeast gene YJL161W): 1.5
- The level of expressed mRNA in the presence of chemical substance/The level of expressed mRNA in the absence of chemical substance (yeast gene YJL171C): 2.8
- The level of expressed mRNA in the presence of chemical substance/The level of expressed mRNA in the absence of chemical substance (yeast gene YJR008W): 1.2
- level of expressed mRNA in the presence of chemical substance / level in the absence of chemical substance (yeast gene YJR030C): 0.9
- The level of expressed mRNA in the presence of chemical substance/The level of expressed mRNA in the absence of chemical substance (yeast gene YJR054W): 0.3
- level of expressed mRNA in the presence of chemical substance / level in the absence of chemical substance (yeast gene YKL051W): 4.7
- The level of expressed mRNA in the presence of chemical substance/The level of expressed mRNA in the absence of chemical substance (yeast gene YKL071W): 5.4
- The level of expressed mRNA in the presence of chemical substance/The level of expressed mRNA in the absence of chemical substance (yeast gene YKL086W): 2.4
- level of expressed mRNA in the presence of chemical substance / level in the absence of chemical substance (yeast gene YKL097C): 0.6
- level of expressed mRNA in the presence of chemical substance / level in the absence of chemical substance (yeast gene YKL100C): 5.0
- The level of expressed mRNA in the presence of chemical substance/The level of expressed mRNA in the absence of chemical substance (yeast gene YKL151C): 1.7
- The level of expressed mRNA in the presence of chemical substance/The level of expressed mRNA in the absence of chemical substance (yeast gene YKL153W): 2.0
- The level of expressed mRNA in the presence of chemical substance/The level of expressed mRNA in the absence of chemical substance (yeast gene YKL195W): 0.4
- level of expressed mRNA in the presence of chemical substance / level in the absence of chemical substance (yeast gene YKR040C): 2.4
- The level of expressed mRNA in the presence of chemical substance/The level of expressed mRNA in the absence of chemical substance (yeast gene YKR091W): 0.9
- The level of expressed mRNA in the presence of chemical substance/The level of expressed mRNA in the absence of chemical substance (yeast gene YLR054C): 0.4
- The level of expressed mRNA in the presence of chemical substance/The level of expressed mRNA in the absence of chemical substance (yeast gene YLR149C): 3.4
- The level of expressed mRNA in the presence of chemical substance/The level of expressed mRNA in the absence of chemical substance (yeast gene YLR152C): 1.1
- The level of expressed mRNA in the presence of chemical substance/The level of expressed mRNA in the absence of chemical substance (yeast gene YLR194C): 1.3
- level of expressed mRNA in the presence of chemical substance / level in the absence of chemical substance (yeast gene YLR226W): 0.3
- The level of expressed mRNA in the presence of chemical substance/The level of expressed mRNA in the absence of chemical substance (yeast gene YLR324W): 0.9
- level of expressed mRNA in the presence of chemical substance / level in the absence of chemical substance (yeast gene YLR338W): 1.4
- The level of expressed mRNA in the presence of chemical substance/The level of expressed mRNA in the absence of chemical substance (yeast gene YLR350W): 3.2
- The level of expressed mRNA in the presence of chemical substance/The level of expressed mRNA in the absence of chemical substance (yeast gene YLR387C): 0.8
- level of expressed mRNA in the presence of chemical substance / level in the absence of chemical substance (yeast gene YLR392C): 0.8
- level of expressed mRNA in the presence of chemical substance / level in the absence of chemical substance (yeast gene YLR415C): 6.7
- level of expressed mRNA in the presence of chemical substance / level in the absence of chemical substance (yeast gene YLR427W): 0.2
- The level of expressed mRNA in the presence of chemical substance/The level of expressed mRNA in the absence of chemical substance (yeast gene YLR460C): 2.0
- level of expressed mRNA in the presence of chemical substance / level in the absence of chemical substance (yeast gene YML013W): 0.4
- level of expressed mRNA in the presence of chemical substance / level in the absence of chemical substance (yeast gene YML029W): 1.3
- level of expressed mRNA in the presence of chemical substance / level in the absence of chemical substance (yeast gene YML041C): 0.6
- level of expressed mRNA in the presence of chemical substance / level in the absence of chemical substance (yeast gene YML079W): 1.1
- The level of expressed mRNA in the presence of chemical substance/The level of expressed mRNA in the absence of chemical substance (yeast gene YML117W): 0.9
- The level of expressed mRNA in the presence of chemical substance/The level of expressed mRNA in the absence of chemical substance (yeast gene YMR009W): 0.5
- The level of expressed mRNA in the presence of chemical substance/The level of expressed mRNA in the absence of chemical substance (yeast gene YMR067C): 1.1
- level of expressed mRNA in the presence of chemical substance / level in the absence of chemical substance (yeast gene YMR068W): 0.8
- level of expressed mRNA in the presence of chemical substance / level in the absence of chemical substance (yeast gene YMR071C): 1.1
- The level of expressed mRNA in the presence of chemical substance/The level of expressed mRNA in the absence of chemical substance (yeast gene YMR090W): 2.3
- The level of expressed mRNA in the presence of chemical substance/The level of expressed mRNA in the absence of chemical substance (yeast gene YMR095C): 1.6
- The level of expressed mRNA in the presence of chemical substance/The level of expressed mRNA in the absence of chemical substance (yeast gene YMR097C): 0.7
- The level of expressed mRNA in the presence of chemical substance/The level of expressed mRNA in the absence of chemical substance (yeast gene YMR102C): 1.1
- The level of expressed mRNA in the presence of chemical substance/The level of expressed mRNA in the absence of chemical substance (yeast gene YMR107W): 1.7
- level of expressed mRNA in the presence of chemical substance / level in the absence of chemical substance (yeast gene YMR160W): 1.2
- The level of expressed mRNA in the presence of chemical substance/The level of expressed mRNA in the absence of chemical substance (yeast gene YMR180C): 1.0
- The level of expressed mRNA in the presence of chemical substance/The level of expressed mRNA in the absence of chemical substance (yeast gene YMR184W): 1.0
- The level of expressed mRNA in the presence of chemical substance/The level of expressed mRNA in the absence of chemical substance (yeast gene YMR191W): 1.9
- The level of expressed mRNA in the presence of chemical substance/The level of expressed mRNA in the absence of chemical substance (yeast gene YMR295C): 1.2
- The level of expressed mRNA in the presence of chemical substance/The level of expressed mRNA in the absence of chemical substance (yeast gene YMR316W): 1.1
- level of expressed mRNA in the presence of chemical substance / level in the absence of chemical substance (yeast gene YNL026W): 1.3
- The level of expressed mRNA in the presence of chemical substance/The level of expressed mRNA in the absence of chemical substance (yeast gene YNL044W): 2.3
